What all share (assay): DTP human tumour cell line panel, 48 h
In experiment [1] the test system is A549 NSCLC.
The test system of experiment [2] is CAKI-1 renal.
In experiment [3] the test system is IGROV1 ovarian.
The test system of experiment [4] is NCI-H460 lung.
The subject of experiment [5] is OVCAR-8 ovarian.
The subject of experiment [6] is SK-MEL-28 melanoma.
The test system of experiment [7] is SN12C renal.
The subject of experiment [8] is NCI/ADR-RES ovarian.

SMILES strings stand for the structures.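 Method: 48-hour compound exposure of cells in 96-well plates, five concentrations, linear interpolation of endpoints. GI50: concentration for 50% inhibition of growth. TGI denotes the concentration required for complete inhibition of growth.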

With `NC(=O)c1csc(C2CCC(CO)O2)n1` (stereo not given), the TGI in experiment [1], in experiment [2], in experiment [3], in experiment [4], in experiment [5] and in experiment [6] was above 100 µM throughout. In experiment [7], this compound gave a TGI above 100 µM.

Turning to `CN1C(=O)C2C=CC1C1CCC2N(C)C1=O` (stereo not given), the TGI in experiment [1], in experiment [2], in experiment [3], in experiment [5], in experiment [6] and in experiment [7] was above 100 µM each time.

As to `COC(=O)c1ccc(C(=O)OC)c2nc3cc(C)ccc3nc12`, the TGI in experiment [1], in experiment [2], in experiment [3], in experiment [4], in experiment [5] and in experiment [6] was above 100 µM throughout. In experiment [7], this compound showed a TGI above 100 µM.

`COc1cc(/C=C/c2ccc(OC)c(OC)c2OC)cc(OC)c1OC`: the TGI in experiment [1] was above 88.9 µM; in experiment [2] it was above 96.4 µM; in experiment [3], 83.3 µM; in experiment [4], 56.2 µM; in experiment [5], above 87.1 µM; in experiment [6], 37.7 µM. Besides, in experiment [7], the TGI was above 69.5 µM.

Consider `Cc1cccc(N=C2NC(=O)C(CC(=O)Nc3ccc(C)cc3C)S2)c1` (stereo not given), for which the TGI in experiment [1], in experiment [2], in experiment [3], in experiment [4], in experiment [5] and in experiment [6] was above 100 µM throughout. The compound further registered a TGI in experiment [7] above 100 µM.

Take `CCCCN(CCCC)CCc1c(C)cc(C)c(CCN(CCCC)CCCC)c1O`: the GI50 in experiment [1] is 3 µM; in experiment [2] it was 2.17 µM; in experiment [3] it was 3.69 µM; in experiment [4] it was 2.91 µM; in experiment [8] it was 3.63 µM; in experiment [5], 3.28 µM. The GI50 is 3.97 µM in experiment [6] and 2.85 µM in experiment [7]. Also, the TGI was above 100 µM in experiment [1]; 7.35 µM in experiment [2]; 35.6 µM in experiment [3]; 9.59 µM in experiment [4]; 88.1 µM in experiment [8]; above 100 µM in experiment [5]. The TGI in experiment [6] was above 100 µM; in experiment [7] it was 9.43 µM.

Turning to `ClCc1ccc(C2OCCO2)cc1`, the TGI in experiment [1] was above 80.7 µM; in experiment [3], above 100 µM; in experiment [4], 39.4 µM; in experiment [5], 36.1 µM; in experiment [6], above 58.6 µM; in experiment [7] it was 35.3 µM.

On to `COC(=O)[C@H]1N[C@@H](C(=O)OC)C23CCC[C@H]2CC[C@]1(C(OC)OC)C3`, for which the TGI in experiment [1], in experiment [2], in experiment [3], in experiment [4], in experiment [5] and in experiment [6] was above 100 µM each time. Further, the TGI in experiment [7] was above 100 µM.

Turning to `O=C(CSc1nc(-c2ccccc2)c(-c2ccccc2)[nH]1)NNC(=S)Nc1ccccc1`, the TGI in experiment [1], in experiment [2], in experiment [3], in experiment [4], in experiment [5] and in experiment [6] was above 100 µM in each case. The compound further registered a TGI in experiment [7] above 100 µM.

Regarding `O=c1cc(-c2ccccn2)[nH]c2cc(F)ccc12`, the TGI in experiment [1], in experiment [3], in experiment [4], in experiment [5], in experiment [6] and in experiment [7] was above 100 µM throughout.

For the compound `CC(/C=C/NNC1=NC(c2ccccc2)C(c2ccccc2)=NN1)Sc1ccccc1N` (stereo not given), the TGI in experiment [1] turned out to be 28.7 µM; in experiment [2], 28 µM; in experiment [3], 30 µM; in experiment [4], 24.9 µM; in experiment [5] it was 19.5 µM; in experiment [6], 21.3 µM. Also, the total growth inhibition concentration (TGI) in experiment [7] turned out to be 18.2 µM.

As to `CC1=NOC(=O)C1N=Nc1ccc(Br)c(C)c1` (stereo not given), the TGI in experiment [1] stood at 46 µM; in experiment [2], 30.8 µM; in experiment [3] it was 39.4 µM; in experiment [4], 58.6 µM; in experiment [5] it was 32.7 µM; in experiment [6] it was 48.7 µM. Also, the TGI in experiment [7] worked out at 48.5 µM.

In the case of `N#Cc1c(C[n+]2ccccc2)c2ccccc2oc1=O`, the TGI in experiment [1], in experiment [2], in experiment [3], in experiment [4], in experiment [5] and in experiment [6] was above 100 µM throughout. For the same compound, the TGI in experiment [7] is above 100 µM.

`CCOC(=O)c1c(-c2ccccc2)c(C(OC(c2ccccc2)c2c(-c3ccccc3)c(C(=O)OCC)n3ccccc23)c2ccccc2)c2ccccn12` (stereo not given): the TGI in experiment [1], in experiment [2], in experiment [3], in experiment [4], in experiment [5] and in experiment [6] was above 100 µM each time. In experiment [7], the TGI was above 100 µM.

As to `COc1ccc2ccccc2c1CN1CCOCCOCCN(Cc2c(OC)ccc3ccccc23)CCOCCOCC1`, the TGI in experiment [1] is above 100 µM; in experiment [2] it was above 100 µM; in experiment [3] it was above 100 µM; in experiment [4], above 100 µM; in experiment [5], above 100 µM; in experiment [6], above 65 µM. For the same compound, the TGI in experiment [7] was above 100 µM.

On to `COC(=O)[C@]1(C)C(OC)=CC(=O)C2C1[C@H]1CCC[C@@H]21` (stereo not given in full), for which the TGI in experiment [1], in experiment [2], in experiment [3], in experiment [4], in experiment [5] and in experiment [6] was above 100 µM each time. Also, the TGI in experiment [7] was above 100 µM.

Consider `S=P(N1CCCC1)(N1CC1)N1CC1`, for which the concentration for total growth inhibition (TGI) in experiment [1], in experiment [2], in experiment [3], in experiment [4], in experiment [5] and in experiment [6] was above 100 µM throughout. Also, the TGI in experiment [7] was above 100 µM.

Usually TGI stands for the concentration at which net growth stops. Read a high TGI as lower sensitivity of the cells. Broadly, the GI50 is the concentration at which growth is held to half of that of the control.

These data come from PubChem BioAssay (NCI).
